According to PubChem BioAssay (NCI):
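Method: 48-hour compound exposure of cells in 96-well plates, five concentrations, linear interpolation of endpoints. At the GI50, growth is halved. TGI is the concentration that stops growth completely.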

Key:
Assay in all cases: DTP human tumour cell line panel, 48 h; in the data active = GI50 below about 0.43 µM; inactive = the rest
NCI-H460 lung = system: NCI-H460 lung
DU-145 prostate = system: DU-145 prostate
CAKI-1 renal = system: CAKI-1 renal
MDA-MB-435 = system: MDA-MB-435
MDA-MB-231 breast = system: MDA-MB-231 breast
SN12C renal = system: SN12C renal
HCT-15 colon = system: HCT-15 colon
COLO 205 colon = system: COLO 205 colon
KM12 colon = system: KM12 colon
K-562 leukemia = system: K-562 leukemia
EKVX NSCLC = system: EKVX NSCLC
SNB-19 CNS = system: SNB-19 CNS
HT29 colon = system: HT29 colon
UACC-62 melanoma = system: UACC-62 melanoma
OVCAR-3 ovarian = system: OVCAR-3 ovarian
A498 renal = system: A498 renal
SK-MEL-2 melanoma = system: SK-MEL-2 melanoma
ACHN renal = system: ACHN renal
NCI-H23 lung = system: NCI-H23 lung
SW-620 colon = system: SW-620 colon
OVCAR-8 ovarian = system: OVCAR-8 ovarian
SNB-75 CNS = system: SNB-75 CNS
HCC-2998 colon = system: HCC-2998 colon
SK-MEL-5 melanoma = system: SK-MEL-5 melanoma
NCI-H522 lung = system: NCI-H522 lung
HOP-62 NSCLC = system: HOP-62 NSCLC
BT-549 breast = system: BT-549 breast
OVCAR-5 ovarian = system: OVCAR-5 ovarian
SF-268 CNS = system: SF-268 CNS
NCI/ADR-RES ovarian = system: NCI/ADR-RES ovarian
PC-3 prostate = system: PC-3 prostate
RXF 393 renal = system: RXF 393 renal
UO-31 renal = system: UO-31 renal
OVCAR-4 ovarian = system: OVCAR-4 ovarian
SF-295 CNS = system: SF-295 CNS
LOX IMVI melanoma = system: LOX IMVI melanoma
IGROV1 ovarian = system: IGROV1 ovarian
SR leukemia = system: SR leukemia
MALME-3M melanoma = system: MALME-3M melanoma
T-47D breast = system: T-47D breast
U251 CNS = system: U251 CNS
NCI-H226 lung = system: NCI-H226 lung
MCF7 breast = system: MCF7 breast
TK-10 renal = system: TK-10 renal
UACC-257 melanoma = system: UACC-257 melanoma
HCT-116 colon = system: HCT-116 colon
786-0 renal = system: 786-0 renal
A549 NSCLC = system: A549 NSCLC
HL-60(TB) leukemia = system: HL-60(TB) leukemia
CCRF-CEM leukemia = system: CCRF-CEM leukemia
SK-MEL-28 melanoma = system: SK-MEL-28 melanoma
HOP-92 NSCLC = system: HOP-92 NSCLC
MOLT-4 leukemia = system: MOLT-4 leukemia
RPMI-8226 leukemia = system: RPMI-8226 leukemia
SK-OV-3 ovarian = system: SK-OV-3 ovarian
SF-539 CNS = system: SF-539 CNS
HS 578T breast = system: HS 578T breast

CCOC(=O)C1C(=O)CC(C)(O)C(C(=O)OCC)C1c1ccc(N(C)C)cc1 (stereo not given)
> 100 µM: TGI (NCI-H460 lung) | TGI (DU-145 prostate) | TGI (CAKI-1 renal) | TGI (MDA-MB-435) | TGI (MDA-MB-231 breast) | TGI (SN12C renal) | TGI (HCT-15 colon) | TGI (COLO 205 colon) | TGI (KM12 colon) | TGI (K-562 leukemia) | TGI (EKVX NSCLC) | TGI (SNB-19 CNS) | TGI (HT29 colon) | TGI (UACC-62 melanoma) | TGI (OVCAR-3 ovarian) | TGI (A498 renal) | TGI (SK-MEL-2 melanoma) | TGI (ACHN renal) | TGI (NCI-H23 lung) | TGI (SW-620 colon) | TGI (OVCAR-8 ovarian) | TGI (SNB-75 CNS) | TGI (HCC-2998 colon) | TGI (SK-MEL-5 melanoma) | TGI (NCI-H522 lung) | TGI (HOP-62 NSCLC) | TGI (BT-549 breast) | TGI (OVCAR-5 ovarian) | TGI (SF-268 CNS) | TGI (NCI/ADR-RES ovarian) | TGI (PC-3 prostate) | TGI (RXF 393 renal) | TGI (UO-31 renal) | TGI (OVCAR-4 ovarian) | TGI (SF-295 CNS) | TGI (LOX IMVI melanoma) | TGI (IGROV1 ovarian) | TGI (SR leukemia) | TGI (MALME-3M melanoma) | TGI (T-47D breast) | TGI (U251 CNS) | TGI (NCI-H226 lung) | TGI (MCF7 breast) | TGI (TK-10 renal) | TGI (UACC-257 melanoma) | TGI (HCT-116 colon) | TGI (786-0 renal) | TGI (A549 NSCLC) | TGI (HL-60(TB) leukemia) | TGI (CCRF-CEM leukemia) | TGI (SK-MEL-28 melanoma) | TGI (HOP-92 NSCLC) | TGI (MOLT-4 leukemia)

C/C(=C\c1ccn(-c2ccc(N)c(C(F)(F)F)c2)n1)[C@@H]1C[C@@H]2O[C@]2(C)CCC[C@H](C)[C@H](O)[C@@H](C)C(=O)C(C)(C)[C@@H](O)CC(=O)O1
12.1 µM: TGI (786-0 renal)
0.593 µM: TGI (SF-539 CNS)
> 16 µM: TGI (MCF7 breast)
8.64 µM: TGI (SR leukemia)
> 26.1 µM: TGI (OVCAR-5 ovarian)
28.3 µM: TGI (T-47D breast)
6.13 µM: TGI (HT29 colon)
> 25 µM: TGI (MDA-MB-231 breast)
23.9 µM: TGI (HOP-92 NSCLC)
3.78 µM: TGI (SK-MEL-5 melanoma)
16.9 µM: TGI (TK-10 renal)
10.5 µM: TGI (RPMI-8226 leukemia)
0.0876 µM: TGI (SNB-75 CNS)
31.5 µM: TGI (BT-549 breast)
8.31 µM: TGI (NCI/ADR-RES ovarian)
0.435 µM: TGI (RXF 393 renal)
> 20.8 µM: TGI (LOX IMVI melanoma)
> 32.5 µM: TGI (CAKI-1 renal) | TGI (SN12C renal) | TGI (KM12 colon) | TGI (K-562 leukemia) | TGI (EKVX NSCLC) | TGI (SNB-19 CNS) | TGI (NCI-H23 lung) | TGI (SW-620 colon) | TGI (SF-268 CNS) | TGI (UO-31 renal) | TGI (OVCAR-4 ovarian) | TGI (IGROV1 ovarian) | TGI (NCI-H226 lung) | TGI (UACC-257 melanoma) | TGI (A549 NSCLC) | TGI (CCRF-CEM leukemia) | TGI (SK-MEL-28 melanoma)
> 27.9 µM: TGI (SK-OV-3 ovarian)
> 20.3 µM: TGI (HOP-62 NSCLC)
> 29.3 µM: TGI (HCT-116 colon)
> 31 µM: TGI (PC-3 prostate)
0.111 µM: TGI (COLO 205 colon)
19.8 µM: TGI (MOLT-4 leukemia)
> 27.8 µM: TGI (HCT-15 colon)
8.55 µM: TGI (U251 CNS)
0.0576 µM: TGI (NCI-H522 lung)
7.23 µM: TGI (SF-295 CNS)
> 20.4 µM: TGI (HCC-2998 colon)
0.203 µM: TGI (HL-60(TB) leukemia)
> 28.1 µM: TGI (OVCAR-8 ovarian)
> 16.2 µM: TGI (UACC-62 melanoma)
active: GI50 (NCI-H460 lung) 0.00848 µM | GI50 (DU-145 prostate) 0.0113 µM | GI50 (CAKI-1 renal) 0.0429 µM | GI50 (MDA-MB-231 breast) 0.134 µM | GI50 (SN12C renal) 0.0237 µM | GI50 (HCT-15 colon) 0.0109 µM | GI50 (COLO 205 colon) 0.00855 µM | GI50 (KM12 colon) 0.00869 µM | GI50 (K-562 leukemia) 0.0109 µM | GI50 (EKVX NSCLC) 0.344 µM | GI50 (SNB-19 CNS) 0.0287 µM | GI50 (HT29 colon) 0.00542 µM | GI50 (UACC-62 melanoma) 0.0599 µM | GI50 (OVCAR-3 ovarian) 0.00997 µM | GI50 (A498 renal) 0.0175 µM | GI50 (RPMI-8226 leukemia) < 0.0104 µM | GI50 (SK-MEL-2 melanoma) 0.0241 µM | GI50 (ACHN renal) 0.0268 µM | GI50 (NCI-H23 lung) 0.0221 µM | GI50 (SK-OV-3 ovarian) 0.103 µM | GI50 (SW-620 colon) 0.00743 µM | GI50 (OVCAR-8 ovarian) 0.0177 µM | GI50 (SNB-75 CNS) 0.00413 µM | GI50 (HCC-2998 colon) 0.0317 µM | GI50 (SK-MEL-5 melanoma) < 0.0108 µM | GI50 (NCI-H522 lung) 0.0085 µM | GI50 (HOP-62 NSCLC) 0.0212 µM | GI50 (BT-549 breast) 0.0221 µM | GI50 (OVCAR-5 ovarian) 0.025 µM | GI50 (SF-268 CNS) 0.0349 µM | GI50 (NCI/ADR-RES ovarian) 0.0624 µM | GI50 (PC-3 prostate) 0.0119 µM | GI50 (RXF 393 renal) 0.0111 µM | GI50 (SF-539 CNS) 0.00984 µM | GI50 (UO-31 renal) 0.055 µM | GI50 (OVCAR-4 ovarian) 0.132 µM | GI50 (SF-295 CNS) 0.0155 µM | GI50 (LOX IMVI melanoma) 0.0122 µM | GI50 (IGROV1 ovarian) 0.0773 µM | GI50 (SR leukemia) 0.00813 µM | GI50 (MALME-3M melanoma) 0.015 µM | GI50 (T-47D breast) 0.0164 µM | GI50 (U251 CNS) < 0.012 µM | GI50 (MCF7 breast) 0.00385 µM | GI50 (HS 578T breast) 0.0103 µM | GI50 (TK-10 renal) 0.0548 µM | GI50 (HCT-116 colon) 0.00733 µM | GI50 (786-0 renal) 0.0175 µM | GI50 (A549 NSCLC) < 0.0116 µM | GI50 (HL-60(TB) leukemia) 0.0086 µM | GI50 (CCRF-CEM leukemia) 0.0117 µM | GI50 (HOP-92 NSCLC) 0.0161 µM | GI50 (MOLT-4 leukemia) 0.0166 µM
1.46 µM: TGI (OVCAR-3 ovarian)
6.21 µM: TGI (NCI-H460 lung)
inactive: GI50 (NCI-H226 lung) 1.99 µM | GI50 (UACC-257 melanoma) 4.27 µM | GI50 (SK-MEL-28 melanoma) 3.87 µM
1.31 µM: TGI (A498 renal)
16.7 µM: TGI (MALME-3M melanoma)
0.0969 µM: TGI (DU-145 prostate)
10.4 µM: TGI (SK-MEL-2 melanoma)
11 µM: TGI (HS 578T breast)
> 29.2 µM: TGI (ACHN renal)
